From patent US11980620B2, “Compounds and methods for treatment of Diamond Blackfan anemia” (THE CHILDREN'S MEDICAL CENTER CORPORATION, priority 2017, dated 2024)

Tested on: CD34-5F progenitors with ATG5 knockdown
Assay: Erythroid differentiation of CD34-5F cells transduced with shRNAs for ATG5
Assay type: cell-based, human
Settings: SMER28 10 μM; p=0.005
Method: (FIG. 13A) Induction of autophagy by SMER28 (40 μM) monitored by protein levels of p62, LC3-I, and LC3-II after 24 hours. Cells were also treated with 5-FU (100 nM) to induce autophagy, or inhibitor of transcription actinomycin D (ActD; 100 nM). (FIG. 13B) Induction of autophagy by SMER28 (40 μM) monitored by protein levels of p62, LC3-I, and LC3-II after 24 hours treatment with or without lysosomal blockade with bafilomycin A (200 nM for 4 hours). Untreated samples are shown at higher exposure, to capture dynamic changes in the LC3-II levels. Rapamycin (200 nM) is a positive control. LC3-II levels relative to GAPDH are quantitated on the right. (FIG. 13C) Erythroid differentiation of CD34-5F cells transduced with shRNAs for luciferase (LUC) or ATG5±SMER28. Representative flow plots and quantitation showing the number of erythroid cells induced by SMER28 (10 μM) normalized to DMSO. 2 control luciferase shRNAs and 2 ATG5 shRNAs are included (knockdown efficiency in hematopoietic cells of 58% and 50%, respectively), each with 2 independent lines; p=0.005, 3 independent experiments. (FIG. 13D) Atg5 deficiency causes anemia in zebrafish. […] Representative images (left), and quantitation (right) with embryos grouped by high, medium, and low levels of benzidine staining. […]

`C=CCNc1ncnc2ccc(Br)cc12` [SMER28, 6-Bromo-N-2-propenyl-4-quinazolinam] was tested, and the “effect of SMER28 on erythroid differentiation after knockdown of ATG5” value was “significantly reduced”.
